What all share (type): cell-based
For assay [1], the target named is T1, hVR1 (Homo sapiens (Human), UniProt Q8NER1). Description: FLIPR assay human VR1, 45° C. stimulus. The conditions noted are these: for IC50: read-out: IC50 (human being) [nM], 45° C. The text has this: The agonistic or antagonistic effect of the substances to be tested on the vanilloid receptor 1 (VR1) can also be determined using the following assay. In this assay, the influx of Ca^2+ through the channel is quantified with the aid of a Ca^2+-sensitive dye (type Fluo-4, Molecular Probes Europe BV, Leiden, the Netherlands) in a fluorescent imaging plate reader (FLIPR, Molecular Devices, Sunnyvale, USA).
Chinese hamster ovary cells (CHO K1 cells, European Collection of Cell Cultures (ECACC) United Kingdom) are stably transfected with the VR1 gene. For functional testing, these cells are plated out on poly-D-lysine-coated black 96-well plates having a clear base (BD Biosciences, Heidelberg, Germany) at a density of 25,000 cells/well. The cells are incubated overnight at 37° C. and 5% CO2 in a culture medium (Ham's F12 nutrient mixture, 10% by volume of FCS (foetal calf serum), 18 μg/ml of L-proline). The next day the cells are incubated with Fluo-4 (Fluo-4 2 μM, 0.01% by volume of Pluronic F127, Molecular Probes in HBSS (Hank's buffered saline solution), Gibco Invitrogen GmbH, Karlsruhe, Germany) for 30 minutes at 37° C. Subsequently, the plates are washed three times with HBSS buffer and after further incubation for 15 minutes at RT used for Ca^2+ measurement in a FLIPR assay. The Ca^2+-dependent fluorescence is measured before and after the addition of the substances to be tested (λex wavelength=488 nm, λem=540 nm). Quantification is carried out by measuring the highest fluorescence intensity (FC, fluorescence counts) over time.
The FLIPR protocol consists of 2 substance additions. […]
Desensitising agonists and antagonists led to suppression of the Ca^2+ influx.
Ki values for the test substances were obtained by conversion by means of the Cheng-Prusoff equation (Cheng, Prusoff; Biochem. Pharmacol. 22, 3099-3108, 1973).

Assay [2] concerns the target T1, hVR1. Nature of the assay: FLIPR Ca2+ influx assay on CHO K1 cells transfected with the VR1 gene, capsaicin stimulus (method II). Set-up: key to Ki (human being) Cap: result in words (NE / AG): AG=agonist; pAG=partial agonist; NE=no effect. The conditions noted are these: for Ki: capsaicin (Cap), read-out: Ki (human being) [nM] Cap.
For assay [3], the target named is T1, hVR1. Nature of the assay: FLIPR assay hVR1, after pH stimulus. Set-up: key to IC50 (human being) hVR1 pH: result in words (NE / AG): AG=agonist; pAG=partial agonist; NE=no effect. As to conditions: for inhibition at 10 µM: read-out: IC50 (human being) hVR1 pH: inhibition (as a percentage) @ 10 μM, inhibition determined at 10 μM; for IC50: read-out: IC50 (human being) hVR1 [nM], pH. The procedure:
In this assay, the influx of Ca^2+ through the channel is quantified with the aid of a Ca^2+-sensitive dye (type Fluo-4, Molecular Probes Europe BV, Leiden, the Netherlands) in a fluorescent imaging plate reader (FLIPR, Molecular Devices, Sunnyvale, USA). Chinese hamster ovary cells (CHO K1 cells, European Collection of Cell Cultures (ECACC) United Kingdom) are stably transfected with the VR1 gene. For functional testing, these cells are plated out on poly-D-lysine-coated black 96-well plates having a clear base (BD Biosciences, Heidelberg, Germany) at a density of 25,000 cells/well. […] Subsequently, the plates are washed three times with HBSS buffer and after further incubation for 15 minutes at RT used for Ca^2+ measurement in a FLIPR assay. […] Quantification is carried out by measuring the highest fluorescence intensity (FC, fluorescence counts) over time. The FLIPR protocol consists of 2 substance additions. […] Desensitising agonists and antagonists led to suppression of the Ca^2+ influx. […] Ki values for the test substances were obtained by conversion by means of the Cheng-Prusoff equation (Cheng, Prusoff; Biochem. Pharmacol. 22, 3099-3108, 1973).

In assay [4] the target is rat-species vanilloid receptor 1 (VR1/TRPV1) (Rattus norvegicus (Rat), UniProt O35433). Nature of the assay: FLIPR Ca2+ influx assay on rat dorsal root ganglia cells, capsaicin stimulus (method I). The conditions noted are these: for Ki: capsaicin (Cap). As to the method: The agonistic or antagonistic effect of the substances to be tested on the rat-species vanilloid receptor 1 (VR1/TRPV1) can be determined using the following assay. In this assay, the influx of Ca^2+ through the receptor channel is quantified with the aid of a Ca^2+-sensitive dye (type Fluo-4, Molecular Probes Europe BV, Leiden, the Netherlands) in a fluorescent imaging plate reader (FLIPR, Molecular Devices, Sunnyvale, USA).
Complete medium: 50 ml HAMS F12 nutrient mixture (Gibco Invitrogen GmbH, Karlsruhe, Germany) with
10% by volume of FCS (foetal calf serum, Gibco Invitrogen GmbH, Karlsruhe, Germany, heat-inactivated);
2 mM L-glutamine (Sigma, Munich, Germany);
1% by weight of AA solution (antibiotic/antimyotic solution, PAA, Pasching, Austria) and 25 ng/ml NGF medium (2.5 S, Gibco Invitrogen GmbH, Karlsruhe, Germany)
Cell culture plate: Poly-D-lysine-coated, black 96-well plates having a clear base (96-well black/clear plate, BD Biosciences, Heidelberg, Germany) are additionally coated with laminin (Gibco Invitrogen GmbH, Karlsruhe, Germany), the laminin being diluted with PBS (Ca—Mg-free PBS, Gibco Invitrogen GmbH, Karlsruhe, Germany) to a concentration of 100 μg/ml. Aliquots having a laminin concentration of 100 μg/ml are removed and stored at −20° C. The aliquots are diluted with PBS in a ratio of 1:10 to 10 μg/ml of laminin and respectively 50 μL of the solution are pipetted into a recess in the cell culture plate. The cell culture plates are incubated for at least two hours at 37° C., the excess solution is removed by suction and the recesses are each washed twice with PBS. The coated cell culture plates are stored with excess PBS which is not removed until just before the feeding of the cells.
The vertebral column is removed from decapitated rats and placed immediately into cold HBSS buffer (Hank's buffered saline solution, Gibco Invitrogen GmbH, Karlsruhe, Germany), i.e. buffer located in an ice bath, mixed with 1% by volume (percent by volume) of an AA solution (antibiotic/antimyotic solution, PAA, Pasching, Austria). The vertebral column is cut longitudinally and removed together with fasciae from the vertebral canal. Subsequently, the dorsal root ganglia (DRG) are removed and again stored in cold HBSS buffer mixed with 1% by volume of an AA solution. The DRG, from which all blood remnants and spinal nerves have been removed, are transferred in each case to 500 μL of cold type 2 collagenase (PAA, Pasching, Austria) and incubated for 35 minutes at 37° C. After the addition of 2.5% by volume of trypsin (PAA, Pasching, Austria), incubation is continued for 10 minutes at 37° C. After complete incubation, the enzyme solution is carefully pipetted off and 500 μL of complete medium are added to each of the remaining DRG. […] The contents of each Falcon tube are respectively filtered through a 70 μm Falcon filter element and centrifuged for 10 minutes at 1,200 rpm and RT. The resulting pellet is respectively taken up in 250 μL of complete medium and the cell count is determined.
The number of cells in the suspension is set to 3×10^5 per ml and 150 μL of this suspension are in each case introduced into a recess in the cell culture plates coated as described hereinbefore. […] Subsequently, the cells are loaded with 2 μM of Fluo-4 and 0.01% by volume of Pluronic F127 (Molecular Probes Europe BV, Leiden, the Netherlands) in HBSS buffer (Hank's buffered saline solution, Gibco Invitrogen GmbH, Karlsruhe, Germany) for 30 min at 37° C., washed 3 times with HBSS buffer and after further incubation for 15 minutes at RT used for Ca^2+ measurement in a FLIPR assay. The Ca^2+-dependent fluorescence is in this case measured before and after the addition of substances (λex=488 nm, λem=540 nm). Quantification is carried out by measuring the highest fluorescence intensity (FC, fluorescence counts) over time.
The FLIPR protocol consists of 2 substance additions.

Each structure is given as a SMILES string.

rat-species vanilloid receptor 1 (VR1/TRPV1), sequence (O35433 whole entry): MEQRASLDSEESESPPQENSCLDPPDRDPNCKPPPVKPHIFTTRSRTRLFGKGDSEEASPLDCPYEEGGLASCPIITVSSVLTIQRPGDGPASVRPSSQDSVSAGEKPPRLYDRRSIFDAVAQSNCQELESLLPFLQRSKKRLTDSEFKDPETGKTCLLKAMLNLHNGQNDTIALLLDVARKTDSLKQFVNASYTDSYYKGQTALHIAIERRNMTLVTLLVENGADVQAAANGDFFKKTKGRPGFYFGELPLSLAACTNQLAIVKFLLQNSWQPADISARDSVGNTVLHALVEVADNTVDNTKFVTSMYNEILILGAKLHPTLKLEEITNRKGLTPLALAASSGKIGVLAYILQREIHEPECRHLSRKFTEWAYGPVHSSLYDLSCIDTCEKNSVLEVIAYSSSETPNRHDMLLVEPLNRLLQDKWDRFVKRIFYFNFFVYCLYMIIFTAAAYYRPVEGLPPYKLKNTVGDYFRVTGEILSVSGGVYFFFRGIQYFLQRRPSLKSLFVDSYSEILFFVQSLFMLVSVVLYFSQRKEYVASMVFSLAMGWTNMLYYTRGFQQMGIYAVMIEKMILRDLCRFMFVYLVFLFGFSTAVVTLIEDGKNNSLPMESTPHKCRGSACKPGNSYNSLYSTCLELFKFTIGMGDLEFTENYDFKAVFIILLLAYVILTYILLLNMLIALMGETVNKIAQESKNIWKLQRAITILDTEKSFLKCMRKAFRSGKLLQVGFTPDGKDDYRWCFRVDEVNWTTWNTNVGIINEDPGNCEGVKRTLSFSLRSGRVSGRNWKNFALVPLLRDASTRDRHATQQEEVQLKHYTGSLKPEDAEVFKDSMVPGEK
T1 sequence (Q8NER1 whole entry): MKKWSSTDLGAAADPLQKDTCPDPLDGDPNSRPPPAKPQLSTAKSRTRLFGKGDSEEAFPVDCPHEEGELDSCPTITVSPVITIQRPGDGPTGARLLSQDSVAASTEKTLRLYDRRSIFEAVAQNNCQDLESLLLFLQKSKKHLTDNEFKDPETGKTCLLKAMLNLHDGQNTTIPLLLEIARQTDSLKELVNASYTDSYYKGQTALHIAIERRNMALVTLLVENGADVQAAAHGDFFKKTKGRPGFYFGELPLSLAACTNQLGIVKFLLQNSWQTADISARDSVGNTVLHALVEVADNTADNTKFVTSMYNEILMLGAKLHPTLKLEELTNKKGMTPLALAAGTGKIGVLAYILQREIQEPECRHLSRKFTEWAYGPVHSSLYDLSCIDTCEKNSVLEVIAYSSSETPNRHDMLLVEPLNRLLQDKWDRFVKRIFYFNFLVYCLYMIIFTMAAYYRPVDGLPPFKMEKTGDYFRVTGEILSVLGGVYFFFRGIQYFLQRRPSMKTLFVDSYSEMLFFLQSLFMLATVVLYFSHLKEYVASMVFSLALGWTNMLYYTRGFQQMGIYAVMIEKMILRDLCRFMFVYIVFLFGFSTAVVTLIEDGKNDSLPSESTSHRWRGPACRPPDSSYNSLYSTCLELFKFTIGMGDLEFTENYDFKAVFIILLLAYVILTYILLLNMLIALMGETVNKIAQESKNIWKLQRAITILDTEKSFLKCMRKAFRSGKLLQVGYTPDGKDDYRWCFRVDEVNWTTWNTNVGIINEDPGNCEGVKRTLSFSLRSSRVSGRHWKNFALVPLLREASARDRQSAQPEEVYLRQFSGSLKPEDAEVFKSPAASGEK

By inhibition is commonly meant the change of the read-out against control, counted positive when it falls. Broadly, the Ki is the dissociation constant of the complex between target and ligand, obtained from inhibition or displacement. `CC(C(=O)NCc1cc(C(C)(C)C)nn1-c1cccc(Cl)c1)c1ccc(NS(C)(=O)=O)c(F)c1` (centres unmarked) [Example 16, N-((3-tert-butyl-1-(3-chlorophenyl)-1H-pyrazol-5-yl)methyl)-2-(3-fluoro-4-(methylsulphonamido)phenyl)propanamide]: on hVR1 [1] (inhibition determined at 0.625 μM, read-out: IC50 (human being) 45° C. column: inhibition (as a percentage) @ 0.625 μM), the inhibition at 0.625 µM worked out at 35%. Also, the inhibition constant (Ki) at hVR1 [2] is 0.3 nM. Also, the “IC50 (human being) hVR1 pH: result in words (NE / AG)” value (shortened to “IC50 … (NE / AG)”) on hVR1 [3] is on record as “NE”.
What is called IC50 is the point on the concentration scale where inhibition reaches its midpoint. `CC(C(=O)NCc1cc(C(C)(C)C)nn1-c1ccc(F)c(Cl)c1)c1ccc(NS(C)(=O)=O)c(F)c1` (centres unmarked) [Example 18, N-((3-tert-butyl-1-(3-chloro-4-fluorophenyl)-1H-pyrazol-5-yl)methyl)-2-(3-fluoro-4-(methylsulphonamido)phenyl)propanamide]: the IC50 on hVR1 [1] was determined as 7 nM. Moreover, on hVR1 [2], the inhibition constant Ki turned out to be 0.5 nM. Moreover, the inhibition at 10 µM at hVR1 [3] came to 31%.
Regarding `CC(C(=O)NCc1cc(C(F)(F)F)nn1-c1ccc(Cl)cc1)c1ccc(NS(C)(=O)=O)c(F)c1` (centres unmarked) [Example 21, N-((1-(4-chlorophenyl)-3-(trifluoromethyl)-1H-pyrazol-5-yl)methyl)-2-(3-fluoro-4-(methylsulphonamido)phenyl)propanamide], the values for the inhibitory constant (Ki) (in assay [4]; at hVR1 [2]) were 1.2 nM and 0.3 nM, respectively. Further, the IC50 came to 27 nM on hVR1 [1] and 179 nM on hVR1 [3].
The corresponding values for `C[C@H](C(=O)NCc1cc(C(F)(F)F)nn1-c1ccc(Cl)cc1)c1ccc(NS(C)(=O)=O)c(F)c1` [Example 23, (S)-N-((1-(4-chlorophenyl)-3-(trifluoromethyl)-1H-pyrazol-5-yl)methyl)-2-(3-fluoro-4-(methylsulphonamido)phenyl)propanamide] are 0.4 nM, 0.3 nM, 16.1 nM and 47.1 nM.
`CC(C(=O)NCc1cc(C(C)(C)C)nn1-c1cccc(Cl)c1)c1cc(F)c(NS(C)(=O)=O)c(F)c1` (centres unmarked) [Example 29, N-((3-tert-butyl-1-(3-chlorophenyl)-1H-pyrazol-5-yl)methyl)-2-(3,5-difluoro-4-(methylsulphonamido)phenyl)propanamide]: at hVR1 [1] (read-out: IC50 (human being) 45° C. column: inhibition (as a percentage) @ 2 μM, inhibition determined at 2 μM), the inhibition at 2 µM was found to be 34%. On hVR1 [2], the Ki turned out to be 1.2 nM. Further, at hVR1 [3], the inhibition at 10 µM is 42%.
In the case of `CC(C(=O)NCc1cc(C(F)(F)F)nn1-c1cccc(Cl)c1)c1ccc(C(F)(F)F)c(F)c1` (centres unmarked) [Example 141, N-((1-(3-chlorophenyl)-3-(trifluoromethyl)-1H-pyrazol-5-yl)methyl)-2-(3-fluoro-4-(trifluoromethyl)phenyl)propanamide], the inhibition constant Ki in assay [4] turned out to be 25.5 nM; on hVR1 [2], 13.6 nM. Besides, at hVR1 [1] (inhibition determined at 2.5 μM, read-out: IC50 (human being) 45° C. column: inhibition (as a percentage) @ 2.5 μM), the inhibition at 2.5 µM is 28%.
`CC(C(=O)NCc1cc(C(C)(C)C)n[nH]1)c1ccc(NS(C)(=O)=O)c(F)c1` (centres unmarked) [Example 1, N-((3-tert-butyl-1H-pyrazol-5-yl)methyl)-2-(3-fluoro-4-(methylsulphonamido)phenyl)propanamide]: in assay [4] (read-out: Ki (rat) Cap: inhibition (as a percentage) @ 5 μM, capsaicin, inhibition determined at 5 μM), the inhibition at 5 µM came to 25%. In addition, the “Ki (human being) Cap: result in words (NE / AG)” value at hVR1 [2] (capsaicin) was “NE”. Further, at hVR1 [3], the “IC50 … (NE / AG)” value is recorded as “NE”.
On to `Cc1ccc(/C=C/n2nc(C(C)(C)C)cc2CNC(=O)C(C)c2ccc(NS(C)(=O)=O)c(F)c2)cc1` (centres unmarked) [Example 19, (E)-N-((3-tert-butyl-1-(4-methylstyryl)-1H-pyrazol-5-yl)methyl)-2-(3-fluoro-4-(methylsulphonamido)phenyl)propanamide], for which the inhibition constant Ki in assay [4] worked out at 819 nM. In addition, the inhibition at 1 µM at hVR1 [2] (CHO-K1, read-out: Ki (human being) inhibition (as a percentage) @ 1 μM, capsaicin, inhibition determined at 1 μM) is 44%. Besides, on hVR1 [3], the “IC50 … (NE / AG)” value was “NE”.
As for `CC(C(=O)NCc1cc(C(C)(C)C)nn1C1CCCCC1)c1ccc(NS(C)(=O)=O)c(F)c1` (centres unmarked) [Example 7, N-((3-tert-butyl-1-cyclohexyl-1H-pyrazol-5-yl)methyl)-2-(3-fluoro-4-(methylsulphonamido)phenyl)propanamide], the results for the Ki (in assay [4]; on hVR1 [2]) were 0.35 nM and 21.6 nM, respectively. The “IC50 … (NE / AG)” value on hVR1 [3] is recorded as “NE”.
In the case of `COc1cc(C(C)C(=O)NCc2cc(C(F)(F)F)nn2-c2cccc(Cl)c2)ccc1NS(C)(=O)=O` (centres unmarked) [Example 28, N-((1-(3-chlorophenyl)-3-(trifluoromethyl)-1H-pyrazol-5-yl)methyl)-2-(3-methoxy-4-(methylsulphonamido)phenyl)propanamide], the half-inhibitory concentration (IC50) was determined as 665 nM on hVR1 [1] and 16 nM at hVR1 [3]. Also, the Ki at hVR1 [2] was found to be 0.4 nM.

The values are drawn from patent publication US9120756B2, “Substituted phenylureas and phenylamides as vanilloid receptor ligands” (Gruenenthal GmbH, priority 2009, dated 2015).
